Test results as given in article PMC4853715, “Design, Synthesis and Antitumor Activity of Novel link-bridge and B-Ring Modified Combretastatin A-4 (CA-4) Analogues as Potent Antitubulin Agents” (Scientific Reports, 2016).

Key:
[1] = tested on: interphase microtubules of A549 cells; assay: Confocal microscopy assay of microtubule morphology; assay type: cell-based, human; settings: A549, 1.0 μM, 48 h
Protocol: After incubating for 48 h, A549 cells were washed with PBS for three times and fixed with 4% paraformaldehyde for 20 min, permeabilized with cold methanol for another 10 min. After that, the cells were blocked with 5% BSA for 1 h. Subsequently, the cells were washed with PBS, and incubated with anti-tubulin antibody in 3% BSA (1:200 Cytoskeleton, Inc.) overnight at 4 °C. After being washed with PBS for three times, each cover slip was added 200 μL of Cy3-labeled goat anti-mouse IgG (H + L) in 3% BSA (1:500, Cytoskeleton, Inc.) and incubated for 1 h at room temperature. At last, A549 cells was stained with 200 μL of DAPI for 5 min and observed under an confocal microscope (Olympus, USA).

Bovine brain tubulin = assay: Effects on tubulin polymerization (turbidimetric assembly); assay type: biochemical; settings: 10 μM tubulin, 30 °C, 20 min incubation; read-out: Tubulin inhibition IC50
Protocol: Bovine brain tubulin was purified as described previously. To evaluate the effect of the compounds on tubulin assembly in vitro, compounds of varying concentrations were preincubated with 10 μM tubulin in glutamate buffer at 30 °C and then cooled to 0 °C. After addition of GTP, the mixtures were transferred to 0 °C cuvettes in a recording BioTek Synergy 4 multifunction microplate spectrophotometer and warmed up to 30 °C and the assembly of tubulin was observed turbidimetrically (TU660, USA).

A549 = assay: MTT assay, antiproliferative activity; assay type: cell-based; settings: Homo sapiens, 48 h, ± SD
Protocol: (§1) The in vitro anticancer activities of the prepared compounds against HepG2, Hela, MCF-7, A549, HT-29 and SSC-4 cell lines were evaluated as described in the literature. Target tumor cells were grown to log phase in DMEM medium supplemented with 10% fetal bovine serum. After reaching a dilution of 1 × 10^5 cells Ml^−1 with the medium, 100 μL of the obtained cell suspension was added to each well of 96-well culture plates. Subsequently, incubation was performed at 37 °C in 5% CO2 atmosphere for 12 h before the cytotoxicity assessment. Tested samples at preset concentrations were added to 6 wells with CA-4 being employed as a positive reference. After 48 h exposure period, 25 μL of PBS containing 2.5 mg mL^−1 of MTT (Sigma, USA) was added to each well. After 4 h, the medium was replaced by 150 μL DMSO to dissolve the purple formazan crystals produced. The absorbance at 570 nm of each well was measured with Synergy™ 2 Multi-Mode Microplate Reader. Cell viability (%) was calculated using the following equation: cell viability (%) = (Atreatment/Acontrol) × 100%. The data represented the mean of three independent experiments in triplicate and were expressed as means ± SD.

MCF-7 = assay: MTT assay, antiproliferative activity; assay type: cell-based; settings: Homo sapiens, MCF7; MCF-7, MTT, 48 h, ± SD
Protocol: as §1

Hela = assay: MTT assay, antiproliferative activity; assay type: cell-based; settings: Homo sapiens, 48 h, ± SD
Protocol: as §1

HT-29 = assay: MTT assay, antiproliferative activity; assay type: cell-based; settings: Homo sapiens; HT-29, MTT, 48 h, ± SD
Protocol: as §1

HepG2 = assay: MTT assay, antiproliferative activity; assay type: cell-based; settings: Homo sapiens, 48 h, ± SD
Protocol: as §1

SSC-4 = assay: MTT assay, antiproliferative activity; assay type: cell-based; settings: Homo sapiens; SSC-4, MTT, 48 h, ± SD
Protocol: as §1

[2] = tested on: Tubulin isolated from porcine brain tissue; assay: Tubulin polymerization assay (kit, absorbance 340 nm); assay type: biochemical; settings: 8.0 μM, 37 °C
Protocol: Tubulin polymerization was determined with the tubulin polymerization assay kit (Cytoskeleton, Denver, CO which was purchased from Cytoskeleton, Beyotime, China. Tubulin isolated from porcine brain tissue was used in this commercial kit.) It is based on the principal that light is scattered by microtubules to an extent that is proportional to the concentration of the microtubule polymer. Compounds that interact with tubulin will alter the polymerization of tubulin, and this can be detected using a spectrophotometer. Tubulin polymerization dynamics was monitored through measuring the change of absorbance at 340 nm every 2 min for 30 min at 37 °C on a spectrophotometer (Perkin-Elmer).

[3] = molecular target: colchicine-binding site of tubulin; assay: [3H] Colchicine-tubulin binding assay; settings: 37 °C, 60 min; read-out: IC50, competition with [3H]colchicine binding to tubulin
Protocol: One micromolar radiolabeled colchicine [ring C, Methoxy-^3H] (Perkin-Elmer), 1% DMSO and various concentrations of test compounds in 50 μL G-PEM buffer containing 80 mmol/L PIPES (pH 6.8), 1 mmol/L EGTA, 1 mmol/L MgCl2 and 1 mmol/L GTP, and 5% glycerol were incubated with […] (>99% pure,; Cytoskeleton, Inc.; 0.2 mg/mL) at 37 °C for 60 min. The binding solutions were filtered through a stack of 2 DEAE-cellulose filters and washed twice. The radioactivity in the filtrates was determined by liquid scintillation spectrometry (Perkin-Elmer Wallac). Nonlinear regression was used to analyze the data using GraphPad Prism.

[4] = tested on: polymerized tubulin in A549 cells; assay: Flow cytometry of extracellular polymerized tubulin; assay type: cell-based, human; settings: A549, 1 μM, 48 h
Protocol: Then, cells were harvested, washed once with PBS and blocked with 1% BSA for 30 min on ice, then were centrifuged (2800 rpm at 4 °C for 5 minutes) to remove supernatant. After that, cells were incubated with β-tubulin antibody (AT819, Beyotime, China) for 1 h on ice and were centrifuged (2800 rpm at 4 °C for 5 minutes) to remove supernatant. Next, cells were incubated with CY5.5-linked anti-rabbit IgG (A7016, Beyotime, China) on ice for 1 h and were also centrifuged (2800 rpm at 4 °C for 5 minutes) to remove supernatant. Finally, cells were then resuspended in PBS and the expression level of polymerized tubulin was analysed by flow cytometry (BD, USA).

A549 xenograft tumor = assay: In vivo anti-tumor activity, A549 xenograft; design: species or system BALB/c nude mice; settings: CA-4P group, 30 mg/kg or 15 mg/kg
Protocol: Mice were subcutaneously inoculated with injections of 5.0 × 10^6 cells/nude mice. After 12–14 days, tumor sizes were determined using micrometer calipers, and then nude mice with similar tumor volume (~100 mm^3, eliminate mice with tumors that are too large or too small) were randomly divided them into four groups (with six nude mice/group). […] Both drugs, as well as the vehicle control, were administered every other day for the entire period of observation.
Male BALB/c nude mice, five weeks old and weighing 18–22 g, were supplied by Shanghai Laboratory Animal Limited Company. The mice were raised in air-conditioned rooms under controlled lighting (12 h light-dark cycle at 24 °C) and were fed with standard laboratory food and water ad libitum. Before injection into the mice, the A549 cells were harvested by trypsinization and washed three times with cold serum-free medium and then injected in a total volume of 0.1 mL using a 1 mL latex-free syringe (BD) within 30 min of harvest. Mice were inoculated subcutaneously with A549 cells (5.0 × 10^6) on their shoulders. […] The control group received 0.9% normal saline. Tumor size was measured once every 2 days in two per-pendicular dimensions with Vernier calipers and converted to tumor volume (TV) using the formula: (ab^2)/2, where a and b refer to the longer and shorter dimensions, respectively. The body weight of the animals was measured twice a week to assess toxicity of the treatments at the same time as the tumor dimension measurement and the mortality was monitored daily. After the treatments for eight weeks, the animals were euthanized by cervical dislocation. This study conformed to the Guide for the Care and Use of Laboratory Animals as published by the US National Institutes of Health and was approved by the Institutional Ethics Review Board of Nanjing University.

Row | Structure (SMILES) | microtubule morphology [1] | IC50 (Bovine brain tubulin) [µM] | IC50 (A549) [µM] | IC50 (MCF-7) [µM] | IC50 (Hela) [µM] | IC50 (HT-29) [µM] | IC50 (HepG2) [µM] | IC50 (SSC-4) [µM] | tubulin polymerization (in words) [2] | IC50 [3] [µM] | microtubule assembly (polymerized tubulin, curve shift versus control) [4] | tumor growth reduction versus vehicle at end of observation (A549 xenograft tumor; every other day) [%] | average weight of the excised tumors (A549 xenograft tumor; control group 1.802 g) [g]
1 | COc1cc2c(c(OC)c1OC)-c1ccc(OC)c(=O)cc1[C@@H](NC(C)=O)CC2 [colchicine] | depolymerization and solubilization | – | – | – | – | – | – | – | – | – | – | – | –
2 | COc1cc(NC(=O)c2cn(C)c3ccccc23)cc(OC)c1OC [Compound 16] | – | 46.8 | 17.6 ± 1.9 | 27.4 ± 2.41 | 26.8 ± 6.81 | 46.4 ± 2.83 | 17.5 ± 1.46 | 45.5 ± 2.6 | – | – | – | – | –
3 | CC(=O)O[C@H]1C(=O)[C@@]2(C)[C@H]([C@H](OC(=O)c3ccccc3)[C@]3(O)C[C@H](OC(=O)[C@H](O)[C@@H](NC(=O)c4ccccc4)c4ccccc4)C(C)=C1C3(C)C)[C@]1(OC(C)=O)CO[C@@H]1C[C@@H]2O [paclitaxel] | substantial stabilization of microtubules | – | – | – | – | – | – | – | – | – | – | – | –
4 | CCn1cc(/C=C\C(=O)c2cc(OC)c(OC)c(OC)c2)c2ccccc21 [Compound 11] | – | 125 | 27.9 ± 6.71 | 45.5 ± 5.67 | 34.2 ± 1.19 | 49.9 ± 6.98 | 27.8 ± 2.23 | 57.8 ± 4.67 | – | – | – | – | –
5 | COc1ccc(/C=C\c2cc(OC)c(OC)c(OC)c2)cc1O [CA-4, combretastatin A-4] | disorganized interphase microtubules | […] | 0.13 ± 0.02 | 0.81 ± 0.11 | 5.52 ± 0.82 | 15.6 ± 0.06 | 0.46 ± 0.07 | 27.2 ± 1.78 | nearly completely blocked | 4.96 | […] | – | –
6 | COc1cc(C(=O)/C=C\c2cn(C)c3ccccc23)cc(OC)c1OC [Compound 10] | – | 49.9 | 12.1 ± 1.2 | 29.9 ± 3.21 | 23.9 ± 5.89 | 44.5 ± 2.87 | 19.6 ± 1.98 | 43.2 ± 3.3 | – | – | – | – | –
7 | CCCn1cc(/C=C\C(=O)c2cc(OC)c(OC)c(OC)c2)c2ccccc21 [Compound 12] | – | > 200 | 37.9 ± 3.61 | 69.8 ± 5.43 | 67.9 ± 4.47 | 78.9 ± 3.51 | 53.9 ± 2.81 | 90 ± 9.98 | – | – | – | – | –
8 | CCn1cc(C(=O)N/N=C/c2cc(OC)c(OC)c(OC)c2)c2ccccc21 [Compound 5] | – | 23.4 | 1.18 ± 0.11 | 14.2 ± 1.11 | 23.8 ± 2.23 | 56.8 ± 2.1 | 10.6 ± 1.98 | 55.2 ± 3.48 | – | – | – | – | –
9 | CCCn1cc(C(=O)N/N=C/c2cc(OC)c(OC)c(OC)c2)c2ccccc21 [Compound 6] | – | 55.7 | 9.89 ± 1.16 | 28.9 ± 3.23 | 56.9 ± 4.89 | 70 ± 3.76 | 39 ± 3.23 | 79.9 ± 2.78 | – | – | – | – | –
10 | COc1cc(/C=N/NC(=O)c2cn(C)c3ccccc23)cc(OC)c1OC [Compound 4] | – | 14.8 | 0.29 ± 0.04 | 3.21 ± 0.76 | 8.45 ± 1.87 | 26.7 ± 1.89 | 2.43 ± 0.23 | 43.2 ± 3.98 | – | – | – | – | –
11 | COc1ccc(/C=C\c2cc(OC)c(OC)c(OC)c2)cc1OP(=O)(O)O [CA-4P, fosbretabulin, reference compound] | – | – | – | – | – | – | – | – | – | – | – | 39 | 1.102
12 | CCCn1cc(C(=O)Nc2cc(OC)c(OC)c(OC)c2)c2ccccc21 [Compound 18] | – | > 200 | 40.2 ± 4.41 | 59.8 ± 3.43 | 77.4 ± 5.78 | 82.2 ± 3.7 | 62.8 ± 3.65 | 90.3 ± 6.76 | – | – | – | – | –
13 | COc1cc(NC(=O)c2cn(Cc3ccccc3)c3ccccc23)cc(OC)c1OC [Compound 19] | – | 19.9 | 2.69 ± 0.4 | 3.61 ± 0.46 | 5.74 ± 1.06 | 32.7 ± 3.31 | 3.68 ± 0.36 | 29.5 ± 3.42 | – | – | – | – | –
14 | CCn1cc(C(=O)Nc2cc(OC)c(OC)c(OC)c2)c2ccccc21 [Compound 17] | – | > 200 | 26.5 ± 6.2 | 48.3 ± 6.58 | 35.7 ± 2.34 | 39.4 ± 3.45 | 28.3 ± 3.33 | 47.2 ± 4.33 | – | – | – | – | –
15 | COc1cc(C(=O)/C=C\c2cn(Cc3ccccc3)c3ccccc23)cc(OC)c1OC [Compound 13] | – | 24.8 | 2.78 ± 0.92 | 4.54 ± 0.96 | 4.78 ± 1.43 | 34.7 ± 5.34 | 2.98 ± 0.34 | 25.7 ± 2.78 | – | – | – | – | –
